Data: patent publication US20090074680A1, “STATHERIN PEPTIDE AND USE IN MEDICINE” (QUEEN MARY & WESTFIELD COLLEGE, priority 2005, published 2009)
Where no end group is shown, it is not given here. [ ]: non-standard residue; d: D form. pS = N[C@@H](COP(=O)(O)O)C(=O)O

Columns and labels:
[1] = Scanning microradiography (SMR) of demineralisation of HAp blocks coated for 24 h with peptide; details: for RDHAp of coated HAp compared to uncoated control: 24 h coating, StN21 0.75 to 3.76×10^−4 mol l^−1, lysozyme 0.11×10^−4 mol l^−1, pH 4.5; for rate of demineralisation of HAp (RDHAp): 0.1 mol l^−1 acetic acid pH 4.5, 3 weeks
From the text: HAp pellets are used in many studies instead of enamel blocks to prevent effect of enamel organic impurities and its natural surface on rate of demineralisation (Anderson et al., 2004). Statherin could not be isolated in a sufficiently pure form from saliva. Therefore N-terminal 21 residue fragment of statherin (StN21) was chemically synthesised using standard FastMoc synthesis (Fields et al., 1990). Also SXE motif, responsible for calcium binding in caseins, is present in this 21 amino-acid fragment of statherin. To exclude the possibility that StN21 act solely as a semi-permeable membrane, lysozyme was used as a negative control.
Hydroxyapatite (HAp) pellets of 20 wt % porosity (Plasma Biotal Ltd, UK) were sliced into 3×3 mm blocks with 2 mm thickness using Microslice 2 cutter (Malvern Instruments Ltd.). Entire surface of the block, except one side was coated with acid resistant nail varnish. Ten HAp blocks were put into a solution saturated with respect to HAp for 24 hours to equilibrate. After equilibration, four HAp blocks were exposed for 24 h to 0.5 ml of four different concentrations of StN21 peptide dissolved in modified buffer (100 mmol^−1 NaCl, 40 mmol^−1 KCl, 4.3 mmol^−1 Na2HPO4, and 1.4 mmol^−1 KH2PO4, pH 7.4). The concentrations of StN21 peptide were 0.75, 1.13, 1.88 and 3.76×10^−4 mol l^−1. As a negative control one HAp pellet was put into 0.5 ml of solution containing lysozyme at concentration of 0.11×10^−4 mol l^−1.
Scanning microradiography (SMR) is a technique for observing very subtle changes in mineral mass during re and demineralisation of enamel and HAp. It allows observation period of up to 1000 h without disruptions to the specimen. Also, conditions can be modified and the effect of applied modifications on the samples can be monitored. SMR (Anderson et al., 2004) is an X-ray photon counting technique where the intensity of 15 μm X ray beam is attenuated by passing through the specimen and the transmitted photons are counted by an X-ray detector.
HAp blocks were placed in the wells of SMR cells (FIG. 2). Each SMR cell contained one HAp block coated with protein and one as a control. As an additional control, in one SMR cell two uncoated HAp blocks were placed in one SMR cell. The reservoir of the SMR cell is approximately 1.2 ml and solution is circulating past the HAp blocks at 0.4 ml min^−1.
Demineralising solution was 0.1 mol l^−1 acetic acid, buffered to pH 4.5 with 1 mol l^−1 NaOH; 1 mmol l^−1 calcium and 0.6 mmol l^−1 phosphate ions.
SMR was used to monitor changes in mineral mass at 12 positions 10 μm apart, along 2 lines in each well. Scanning time was 30 s per position. Total period of observation was 3 weeks. The rate of mineral change at each position was calculated by linear least squares fitting.

[2] = SMR of demineralisation of HAp blocks after 3 min immersion(s) in STN21 solution; details: STN21 1.88×10^−4 mol l^−1, pH 4.5
Method: STN21 was synthesised using Fmoc solid state synthesis. Hydroxyapatite (HAp) pellets were cut into 5×5×2 mm blocks and covered with acid-resistant varnish leaving one surface exposed and immersed in STN21 solution (1.88×10^−4 mol l^−1) for 3 min. The pellets were then located in scanning microradiography (SMR) cells. Demineralising solution (0.1 mol l^−1 acetic acid, pH 4.5) was circulated (0.4 ml min^−1) for 3 weeks.
Five samples were exposed to further twice daily 3 min. immersions in STN21 solution. Changes in mineral mass were measured using SMR for 28 days.

[3] = lysozyme bound to HAp surface; cited from earlier work

Substance | effect on RDHAp at lowest concentration ([1]; 9.4×10^−6 molar, equivalent to 25 mg/litre) | RDHAp of coated HAp compared to uncoated control [1] | rate of demineralisation of HAp (RDHAp) ([1]; StN21 coating concentration 0.75×10^−4 mol l^−1, 24 h exposure) | rate of demineralisation of HAp (RDHAp) ([1]; StN21 coating concentration 1.13×10^−4 mol l^−1, 24 h exposure) | rate of demineralisation of HAp (RDHAp) ([1]; StN21 coating concentration 1.88×10^−4 mol l^−1, 24 h exposure) | rate of demineralisation of HAp (RDHAp) ([1]; StN21 coating concentration 3.76×10^−4 mol l^−1, 24 h exposure) | decrease in rate of mineral loss compared to a non-coated control ([2]; one 3 min period only) | decrease in demineralisation rate ([2]; repeated twice daily 3 min immersions) | influence on rate of demineralisation of HAp [3]
DpSpSEEKFLRRIGRFGYGYGPY (D[pS][pS]EEKFLRRIGRFGYGYGPY; UniProt P02808 20-40, looked up, fragment) [StN21, N-terminal fragment of statherin which consists of 21 amino acids; pS = phosphorylated serine] | effective | significantly lower | 2.2 ×10^−5 g cm^−2 h^−1 | 1.9 ×10^−5 g cm^−2 h^−1 | 1.7 ×10^−5 g cm^−2 h^−1 | 1.8 ×10^−5 g cm^−2 h^−1 | 17% | 45% | 
lysozyme [reference compound] |  | very similar results to uncoated (control) blocks |  |  |  |  |  |  | does not influence rate of demineralisation of HAp
